How the values were obtained:
Assay type in all cases: cell-based, Human
A549 cells [1] = assay: Apoptosis assay (ApoONE, caspase 3/7 activation); settings: 50 μM cisplatin
Protocol: Cell viability and apoptosis were assessed by CellTiter Glo (Promega) and ApoONE (Promega) kits, respectively. Molecular changes were screened using a MALDI524 FTICR MS platform.
Human lung carcinoma A549 cells were obtained from ATCC (Manassas, Va.) and cultured in Dulbecco's Modified Eagle's Medium (DMEM, Gibco) with 10% v/v heat-inactivated fetal bovine serum (Atlanta Biologicals) and 1% v/v penicillin/streptomycin (P/S) (Gibco) at 37° C. with 5% CO2 atmosphere. Stable isotope labeling by amino acids in cell culture (SILAC) media were prepared using SILAC DMEM (Thermo Scientific) containing 10% v/v dialyzed heat-inactivated FBS (Fisher), 1% v/v P/S, proline (250 mg/L) (Thermo Scientific), and appropriate light and heavy labeled arginine (84 mg/L), lysine (146 mg/L). […]
At each time point, cell viability and apoptosis were assessed by CellTiter-Glo (Promega) and ApoONE (Promega) kits, respectively. Plates were incubated at 37° C. in a plate reader (BioTek) with data acquisition every 10 min by luminescence (1 s read time, 200 gain) and fluorescence (485 nm excitation, 528 nm emission). […] Cell viability was also assessed using the LIVE/DEAD Viability/Cytotoxicity Kit for mammalian cells (ThermoFisher). […]

A549 cells [2] = assay: Molecular screening assay (MALDI FTICR MS molecular variance score); settings: 1 and 6 h exposure, doses 20-100 μM
Protocol: After incubation for the respective times, wells were washed 3 times with PBS and stored at −80° C. The effect of different toxin dosage amounts and exposure times on the molecular content of a sample may be evaluated and reported directly for thousands of molecular species based upon the mass spectra that were collected for each of the samples. A comparison of the mass-to-charge (m/z) peak content between spectra from dosed cells and a reference spectrum from a non-dosed control sample delivers a mass spectrometric assessment of toxicity-induced molecular variation. However, seeking a data-driven global comparison instead of focusing on specific molecular species of interest makes the assessment of molecular change between the different experimental conditions very complex and high dimensional. To determine which dosage amount induces the greatest molecular change, a quick and broad assessment of toxicity-induced molecular variance summarizing the entire recorded mass range was developed. […]
Within each time point (represented by a 24-well plate), seven different dosage conditions were measured: six different toxin dosages and one reference condition (e.g., untreated). Per dosage condition there were nine distinct replicate measurements made: each dosage condition was represented by three replicate wells, from which three technical replicate spectra were measured per well. […]

A549 cells [3] = assay: Multi-omics analysis (transcriptome, proteome, phosphoproteome, metabolome); settings: 50 μM cisplatin, A549 cells, 1, 6, 24 and 48 h
Protocol: Samples were analyzed for transcriptome changes by RNA sequencing at the Genomics Services Lab, HudsonAlpha, for proteome changes by label free, SILAC, and phospho-enriched SILAC LC-MS/MS, and metabolome changes by UPLC-IM-MS and data-independent acquisition (MSE) using both hydrophilic-interaction liquid chromatography and reverse phase liquid chromatography.
RNA was isolated using the RNeasy Mini Kit (Qiagen). For each time point, untreated and cisplatin-treated samples were isolated in triplicate and analyzed by the Genomics Services Lab at HudsonAlpha. RNAseq was performed using poly(A) selection on an Illumina HiSeq v4 sequencing platform. Reads were paired-end with a read length of 50 bp and 50 million reads per sample.
Cells were scraped from slides and lysed in 300 μL of 50 mM Tris pH 8, 150 mM NaCl, 1% Nonidet 40, 1 mM EDTA with added HALT Protease Inhibitor Cocktail (Thermo Scientific), centrifuged, and assayed for protein concentration (BCA Protein Assay, Thermo Scientific Pierce) using a SpectraMax M2e Microplate Reader with SoftMax Pro software version 5 (Molecular Devices). Aliquots of 100 μg of protein were acetone precipitated in six times the volume for 2 h at −80° C. Precipitates were washed three times with cold acetone and reconstituted in 10 μL of neat trifluoroethanol (TFE) and 10 μL of 100 mM Tris (pH 8.0). […]

N.N.[Cl][Pt][Cl] [cisplatin]
time of maximal caspase activation (A549 cells [1]): 24 h
dose up to which molecular variance increased (maximum molecular response, optimal dose) (A549 cells [2]): 50 µM
percentage of unique species detected that were significantly changed (A549 cells [3]): 24%
number of significantly changed unique species (A549 cells [3]; of 53,500 unique species detected): 13,483
